Experimental data from PMC4965013, “Open Source Drug Discovery with the Malaria Box Compound Collection for Neglected Diseases and Beyond” (PLoS Pathogens, 2016).
Like-named read-outs stand apart in the source and are kept apart here.

Assays:
[1] = tested on: P. falciparum 3D7, HB3, Dd2, W2, K1, FCR3; assay: Asexual EC50 image assay, six strains, Ayong; type: cell-based; conditions: Plasmodium falciparum
zebrafish embryos = assay: Zebrafish embryo toxicity, mortality, behaviour; type: in vivo; conditions: 10µM
Procedure: Columns FE-FG: BIOBIDE group (data presented first in this paper). Zebrafish embryo toxicity, mortality, and behaviour change. 3 days post fertilization (dPf) zebrafish embryos from AB strain (wild type) were used for in vivo toxicity and behavioural screening. […] Then, embryos were incubated with each compound at 10 µM (1% DMSO) in E3 buffered with HEPES at 10 mM for 48 hours in 24 well plates, 5 embryos per well, 3 wells per condition (n=15). A group treated only with the vehicle was included in each plate as negative control. Afterwards, mortality and morphological alterations were assessed. Toxicity: When an altered phenotype (mortality, developmental abnormalities) appeared in more than 20% of cases it was considered toxic. […] For this purpose, 5dPf larvae (treated and negative controls) were transferred from 24-well treatment plate to 96-well plate, one embryo per well. 96-well plate was introduced in DanioVision system powered by Ethovision (Noldus). The behaviour was evaluated recording a total of 40 minutes in a round of 10 minutes under light and 10 minutes in darkness repeated twice. As activity is expected to differ under light and dark periods, the analysis was performed for each one of the 10 minutes phases. The differences between treated and controls for each parameter (distance, velocity) and phase was considered significant if p value is less than 0.005 (scored y for yes in HeatMap). Also, the p values between 0.01 and 0.005 were taken into account as an indicator of tendency (scored m for maybe in heat map). The toxic character of a compound was determined by the consistent differences (in both dark and light periods) between treated embryos and controls. […] If consistent results could not be obtained, the compound was scored i for indeterminate.

[2] = tested on: U87-CD4-CCR5 or U87-CD4-CXCR4 cells; assay: U87 cell viability MTT; type: cell-based; conditions: for U87 % cell death rep3 (X4 P24 Washout expt): 5uM; for U87 % Cell Death rep3 (R5 P24 Washout expt) / U87 % cell death rep3 (R5 P24 NO Washout expt) / U87 % cell death rep3 (X4 P24 NO Washout expt) / U87 Luc % cell death rep1 / U87 Luc % cell death rep2: 5µM
[3] = tested on: HIV-1 JR-FL or HIV-1 NL4-3 pseudoviruses; assay: HIV-1 pseudovirus infection luciferase; type: cell-based
Procedure: Columns FK-GB, Moore group (data presented first in this paper). HIV and HIV-producing cell lines, toxicity and viral suppression. […] MMV compounds were incubated with HIV-1 JR-FL or HIV-1 NL4-3 pseudoviruses and U87-CD4-CCR5 or U87-CD4-CXCR4 cells (obtained through the NIH AIDS Reagent Program, Division of AIDS, NIAID, NIH: U87 CD4+CCR5+ Cells from Dr. HongKui Deng and Dr. Dan R. Littman) respectively for 3 days. Cells were assayed for infection by luciferase production (Bright-Glo Luciferase Substrate, Promega) and cell viability by MTT assay. […] MMV compounds were next incubated with HIV-1 JR-FL or HIV-1 NL4-3 viruses and U87-CD4-CCR5 or U87-CD4-CXCR4 cells respectively for 7 days. Cell supernatants were assayed for viral production by p24 ELISA [153] and cell viability by MTT assay. […] DMSO (5%) was completely toxic to all cells (based on visual inspection) and served as the positive control for MTT assays.

[4] = Mouse oral PK single dose; type: in vivo; conditions: male, CD-1, mouse, plasma, 140 umol/kg; 140 μmol/kg oral
Procedure: Columns GD-GJ: Wuxi Inc. data for MMV (data presented first in this paper) PK/DMPK Parameters: Fasted animals (Male CD-1 mouse, 7-9 weeks age, 30±10 g, n=3) obtained from an approved vendor (SLAC Laboratory Animal Co. Ltd., Shanghai, China or Sino-British SIPPR/BK Laboratory Animal Co. Ltd Shanghai, China) were administered with a single oral dose (140 μmol/kg) using DMSO: 1% HPMC (5:95) as a vehicle. Blood sampling was performed via the submandibular or saphenous vein (t=0.083, 0.25, 1, 2, 4, 6 and 9 h) and transferred into microcentrifuge tubes containing Sodium Heparin (1,000 IU/ml) as anti-coagulant placed on wet ice until processed for plasma by centrifugation at approximately 4°C, 3000×g for 15 min. Plasma samples were stored in polypropylene tubes, quick frozen over dry ice and kept at -70±10°C until LC/MS/MS analysis. LC/MS/MS methods for the quantitative determination compounds plasma levels were developed with an internal standard. […] (Phoenix WinNonlin, version 6.2.1, Pharsight, Mountain View, CA) and expressed as Cmax & AUC0-last. […] AUC0-last is the area under the curve expressed as >12 h*μM (Yes or No). Plasma protein binding assay (PPB) (CD-1 mouse and human) expressed as <95% bound, >95% bound, or >99% bound. Kinetic Solubility at pH 7.4 was determined by liquid chromatography/chemiluminescence nitrogen detection (LC/CLND) and was scored as greater than 20µM (Yes or No). hERG inhibition was measured at 11µM by the QPatch- HT system and is expressed as “Yes” if greater than 45% inhibited at 11µM and “No” if less than or equal to 45% inhibited at 11µM. As part of the Drug-Drug Interaction studies (DDI issues), 5 human and 1 mouse CYP isoforms (1A2, 2C9, 2C19, 2D6, 3A4-M, 3A4-T) were tested for inhibition assay at 10 µM. […] Otherwise DDI issues were scored as “No”. Positive and negative controls were run for each assay (Table 1).

[5] = tested on: P. falciparum NF54Pfs16 gametocytes stage IV-V; conditions: 5µM; ref [62]; cited from earlier work
[6] = tested on: P. falciparum NF54 GFP-Pfs16 gametocytes stage I-III; conditions: ref [64], cited from earlier work
[7] = tested on: Trypanosoma brucei rhodesiense STIB 900; conditions: ref [84]; cited from earlier work
T. cruzi Tulahuen = conditions: ref [84]; read-out: Trypanosoma cruzi Tulahuen intracellular amastigotes in MRC5 cell line EC50; cited from earlier work
wild type yeast cells = assay: WT yeast (PMT assay control); conditions: Saccharomyces cerevisiae
[8] = read-out: P. falciparum 3D7 asexual blood stage EC50 (Image) Ayong
[9] = read-out: P. falciparum Dd2 asexual blood stage EC50 (Image) Ayong
[10] = read-out: P. falciparum FCR3 asexual blood stage EC50 (Image) Ayong
[11] = read-out: P. falciparum HB3 asexual blood stage EC50 (Image) Ayong
[12] = read-out: P. falciparum K1 asexual blood stage EC50 (Image) Ayong
[13] = read-out: P. falciparum W2 asexual blood stage EC50 (Image) Ayong
[14] = Human immunodeficiency virus 1, NL43, read-out: HIV JRFL % inhibition rep1 in U87 Luc
[15] = Human immunodeficiency virus 1, NL43, read-out: HIV JRFL % inhibition rep2 in U87 Luc
[16] = Human immunodeficiency virus 1, NL43, read-out: HIV NL4-3 % inhibition rep1 in U87 Luc
[17] = read-out: % Inhibition in WT yeast (PMT assay control), no added choline
[18] = read-out: % Inhibition in WT yeast (PMT assay control), with added choline

Row | Structure (SMILES) | EC50 [1, 8] | EC50 [1, 9] | EC50 [1, 11] | EC50 [1, 13] | Zebrafish % mortality (zebrafish embryos) | U87 % cell death rep3 (X4 P24 Washout expt) [2] | U87 % Cell Death rep3 (R5 P24 Washout expt) [2] | U87 % cell death rep3 (R5 P24 NO Washout expt) [2] | U87 % cell death rep3 (X4 P24 NO Washout expt) [2] | U87 Luc % cell death rep1 [2] | U87 Luc % cell death rep2 [2] | inhibition at 5 µM [3, 14] | inhibition at 5 µM [3, 15] | inhibition at 5 µM [3, 16] | AUC [4] | Cmax [4] | gametocyte early stage (I-III) GFP-MTR % inhibition ([6]; 0.5µM) | gametocyte early stage (I-III) GFP-MTR % inhibition ([6]; 5µM) | inhibition at 100 µM (wild type yeast cells; [17]) | inhibition at 100 µM (wild type yeast cells; [18]) | other results
1 | CCN(CC)c1cc(C)c2cc(NC(=O)c3cccc(OC)c3)ccc2n1 [MMV000498] | 1800 nM | 2450 nM | 2800 nM | 2740 nM | 0% | -4% | 1.63% | 33% | 13% | 21% | 64% | -9% | 52% | 15% | > 12 µM·h | > 1000 nM | 15% | 16% | 0% | 0% | EC50 [1, 10]: 4560 nM; EC50 [1, 12]: 3530 nM; gametocyte late stage (IV-V) luciferase % inhibition [5]: -3.24%; EC50 [7]: 0.679 µM; EC50 (T. cruzi Tulahuen): 13.7 µM
2 | CCN1CCN(c2cc(C)c3cc(NC(=O)c4ccc(OC)c(OC)c4)ccc3n2)CC1 [MMV019074] | 904 nM | 1270 nM | 1500 nM | 2950 nM | 0% | -32% | 7.48% | 17% | 3.26% | 0.063% | 10% | 11% | -62% | 13% | < 12 µM·h | > 1000 nM | 11% | 14% | 0% | 0% | EC50 [1, 10]: 2610 nM; EC50 [1, 12]: 1320 nM; Zebrafish Toxicity (mortality and dev abnl) (zebrafish embryos): y (altered phenotype (mortality, developmental abnormalities) appeared in more than 20% of cases it was considered toxic); gametocyte late stage (IV-V) luciferase % inhibition [5]: -9%; EC50 [7]: 3.22 µM; EC50 (T. cruzi Tulahuen): 6.59 µM
3 | COc1cc2cc(C(=O)Nc3ccccc3)c(N)nc2cc1OC [MMV006767] | 592 nM | 357 nM | 812 nM | 797 nM | 0% | 51% | -0.103% | 95% | 106% | 75% | 43% | 93% | 64% | 96% | > 12 µM·h | > 1000 nM | 17% | 99% | 0% | 0% | EC50 [1, 10]: 931 nM; EC50 [1, 12]: 1490 nM; Zebrafish Toxicity (mortality and dev abnl) (zebrafish embryos): y (altered phenotype (mortality, developmental abnormalities) appeared in more than 20% of cases it was considered toxic); gametocyte late stage (IV-V) luciferase % inhibition [5]: 2%
4 | COc1ccc(C(=O)Nc2ccc3nc(N4CCCCC4)cc(C)c3c2)cc1OC [MMV019758] | 1600 nM | 3290 nM | 3440 nM | 4470 nM | 13% | -25% | 3.19% | 39% | -2.11% | -1.12% | 4.5% | 4.56% | -50% | 7% | > 12 µM·h | > 1000 nM | -8% | 8% | 0% | 0% | Zebrafish Toxicity (mortality and dev abnl) (zebrafish embryos): y (altered phenotype (mortality, developmental abnormalities) appeared in more than 20% of cases it was considered toxic); EC50 [7]: 10.9 µM; EC50 (T. cruzi Tulahuen): 14.6 µM
